Numbered stars: 1 amine (or outer) side, 2 acyl side, 3 side chain; on linkers, the order of the positions; unused ones are H or OH. Square brackets hold non-standard residues; d marks the D form. Peptide text beside a SMILES is read from it. LeuΨ(CH2N)Pro = CC(C)C[C@@H](CN1CCC[C@H]1C(=O)[*:2])N[*:1]; X1 = O=C([C@@H]1CCCN1C[C@H](Cc1ccc(O)cc1)N[*:1])[*:2]; X2 = O=C([C@@H]1CCCN1C[C@H](Cc1ccccc1)N[*:1])[*:2]; X3 = CCCC[C@@H](CN(C)[C@@H](CCCC)C(=O)[*:2])N[*:1]; X4 = C[C@@H](CN1CCC[C@H]1C(=O)[*:2])N[*:1]
Target: T1, HIV protease (Human immunodeficiency virus type 1 group M subtype B, UniProt P04585)
Assay: HIV protease assay, inhibition of cleavage of acetyl-Thr-Ile-Met-Met-Gln-Arg-NH2 (HPLC)
Type: biochemical, HIV-1
Settings: affinities not fully characterized, classified by comparative inhibition studies; read-out: KI (affinity category)
`CC[C@H](C)[C@H](NC(=O)[C@H](CCC(N)=O)NC(=O)[C@@H]1CCCN1C[C@H](Cc1ccccc1)NC(=O)[C@H](CC(N)=O)NC(=O)[C@H](Cc1ccccc1)NC(=O)[C@H](CO)NC(C)=O)C(N)=O` [Ac--Ser--Phe--Asn--Phe-.PSI.[CH2 N]--Pro--Gln--Ile--NH2] (Ac-SFN[X2]QI-NH2) gave a Ki of 1 to 100 µM. With `CCCC[C@@H](CN[C@@H](Cc1ccccc1)C(=O)N[C@@H](CCC(N)=O)C(=O)N[C@@H](CCCNC(=N)N)C(N)=O)NC(=O)[C@@H](NC(=O)[C@@H](NC(C)=O)[C@@H](C)O)[C@@H](C)CC` [Ac--Thr--lle--Nle-.PSI.[CH2 NH]--Phe--Gln--Arg--NH2] the Ki was < 1 µM. In the case of `CCCC[C@@H](CNC1(C(=O)N[C@@H](CCC(N)=O)C(=O)N[C@@H](CCCNC(=N)N)C(N)=O)CCCC1)NC(=O)[C@@H](NC(=O)[C@@H](NC(C)=O)[C@@H](C)O)[C@@H](C)CC` [Ac--Thr--lle--Nle-.PSI.[CH2 NH]--Cle--Gln--Arg--NH2], the Ki is reported as > 100 µM. For `CCCC[C@@H](CN[C@@H](CC(C)C)C(=O)N[C@@H](CCC(N)=O)C(=O)N[C@@H](CCCNC(=N)N)C(N)=O)NC(=O)[C@@H](NC(=O)[C@@H](NC(C)=O)[C@@H](C)O)[C@@H](C)CC` [Ac--Thr--lle--Nle-.PSI.[CH2 NH]--Leu--Gln--Arg--NH2], the Ki was < 1 µM. Work on `CCCC[C@@H](CN[C@@H](CCCC)C(=O)N[C@@H](CCC(N)=O)C(=O)N[C@@H](CCCNC(=N)N)C(N)=O)NC(=O)[C@@H](NC(=O)[C@H](NC(C)=O)[C@H](C)O)[C@@H](C)CC` [Ac--D--Thr--Ile--Nle-.PSI.[CH2 NH]--Nle--Gln--Arg--NH2] yielded a Ki of 1 to 100 µM. With `CC[C@H](C)[C@H](NC(=O)[C@H](CCC(N)=O)NC(=O)[C@@H]1CCCN1C[C@H](Cc1ccccc1)NC(=O)[C@H](CC(N)=O)NC(=O)[C@H](Cc1ccccc1)NC(C)=O)C(N)=O` [Ac--Phe--Asn--Phe-.PSI.[CH2 N]--Pro--Gln--Ile--NH2] (Ac-FN[X2]QI-NH2) the Ki was 1 to 100 µM. With `CC(=O)N[C@@H](CC(C)C)C(=O)N[C@@H](C)C(=O)N[C@@H](C)CN1CCC[C@H]1C(=O)N[C@@H](CCC(N)=O)C(=O)N[C@@H](Cc1ccccc1)C(N)=O` [Ac--Leu--Ala--Ala-.PSI.[CH2 N]--Pro--Gln--Phe--NH2] (Ac-LA[X4]QF-NH2) the Ki was > 100 µM. `CCCC[C@@H](CN[C@@H](CCCC)C(=O)N[C@@H](CCC(N)=O)C(=O)N[C@H](CCCNC(=N)N)C(N)=O)NC(=O)[C@@H](NC(=O)[C@@H](NC(C)=O)[C@@H](C)O)[C@@H](C)CC` [Ac--Thr--Ile--Nle-.PSI.[CH2 NH]--Nle--Gln--D--Arg--NH2] showed a Ki of 1 to 100 µM. Work on `CC(=O)NCC(=O)N[C@@H](CC(N)=O)C(=O)N[C@@H](Cc1ccc(O)cc1)CN1CCC[C@H]1C(=O)N[C@H](C(=O)N[C@@H](CCC(N)=O)C(N)=O)C(C)C` [Ac--Gly--Asn--Tyr-.PSI.[CH2 N]--Pro--Val--Gln--NH2] (Ac-GN[X1]VQ-NH2) yielded a Ki of 1 to 100 µM. With `CCCC[C@@H](CN[C@@H](CC1CCCCC1)C(=O)N[C@@H](CCC(N)=O)C(=O)N[C@@H](CCCNC(=N)N)C(N)=O)NC(=O)[C@@H](NC(=O)[C@@H](NC(C)=O)[C@@H](C)O)[C@@H](C)CC` [Ac--Thr--Ile--Nle-.PSI.[CH2 NH]--Cha--Gln--Arg--NH2] the Ki was < 1 µM. In the case of `CCCC[C@@H](CN[C@H](C(=O)N[C@@H](CCC(N)=O)C(=O)N[C@@H](CCCNC(=N)N)C(N)=O)[C@@H](C)CC)NC(=O)[C@@H](NC(=O)[C@@H](NC(C)=O)[C@@H](C)O)[C@@H](C)CC` [Ac--Thr--Ile--Nle-.PSI.[CH2 NH]--Ile--Gln--Arg--NH2], the Ki is reported as < 1 µM. In the case of `CCCC[C@@H](CN(C)[C@@H](CCCC)C(=O)N[C@@H](CCC(N)=O)C(=O)N[C@@H](CCCNC(=N)N)C(N)=O)NC(=O)[C@@H](NC(=O)[C@@H](NC(C)=O)[C@@H](C)O)[C@@H](C)CC` [Ac--Thr--Ile--Nle-.psi.[CH2 NH]--MeNle--Gln--Arg--NH2] (Ac-TI[X3]QR-NH2), the Ki is reported as > 100 µM. `CCCC[C@@H](CN[C@@H](CCCC)C(=O)N[C@@H](CCC(N)=O)C(=O)N[C@@H](CCC)C(N)=O)NC(=O)[C@@H](NC(=O)[C@@H](NC(C)=O)[C@@H](C)O)[C@@H](C)CC` [Ac--Thr--Ile--Nle-.PSI.[CH2 NH]--Nle--Gln--Nva--NH2] showed a Ki of 1 to 100 µM. Work on `CCCC[C@@H](CN[C@@H](CCCC)C(=O)N[C@H](C(=O)N[C@H](C(N)=O)[C@@H](C)O)[C@@H](C)CC)NC(=O)[C@H](CCC(N)=O)NC(=O)[C@H](CCCNC(=N)N)NC(C)=O` [Ac--Arg--Gln--Nle-.PSI.[CH2 NH]--Nle--Ile--Thr--NH2] yielded a Ki of 1 to 100 µM. `CCCC[C@@H](CN[C@@H](CCCC)C(=O)N[C@@H](CCC(N)=O)C(N)=O)NC(=O)[C@@H](NC(=O)[C@@H](NC(C)=O)[C@@H](C)O)[C@@H](C)CC` [Ac--Thr--Ile--Nle-.PSI.[CH2 NH]--Nle--Gln--NH2] showed a Ki of 1 to 100 µM. Molecule `CC[C@H](C)[C@H](NC(=O)[C@@H]1CCCN1C[C@H](Cc1ccccc1)NC(=O)[C@H](CC(N)=O)NC(=O)[C@H](CC(C)C)NC(C)=O)C(=O)N[C@@H](CO)C(=O)O` [Ac--Leu--Asn--Phe-.psi.[CH2 N]--Pro--Ile--Ser--OH] (Ac-LN[X2]IS-OH) has a Ki of 1 to 100 µM. `CC[C@H](C)[C@H](NC(=O)[C@@H]1CCCN1C[C@H](Cc1ccccc1)NC(=O)[C@H](CC(N)=O)NC(=O)[C@H](CC(C)C)NC(=O)[C@@H](N)[C@@H](C)O)C(=O)N[C@@H](CO)C(=O)O` [H2 N--Thr--Leu--Asn--Phe-.PSI.[CH2 N]--Pro--Ile--Ser--OH] (H-TLN[X2]IS-OH) showed a Ki of 1 to 100 µM.

Same assay, conditions: in vitro inhibition of HIV protease, pH 6.5, 25°; read-out: KI
For `CC(C)C[C@@H](CN1CCC[C@H]1C(=O)N[C@H](C(=O)N[C@@H](C)C(=O)O)C(C)C)NC(=O)[C@H](CC(N)=O)NC(=O)[C@H](CC(C)C)NC(=O)[C@@H](N)CO` [H2 N--Ser--Leu--Asn--Leu-.PSI.[CH2 N]--Pro--Val--Ala--OH] (H-SLN[LeuΨ(CH2N)Pro]VA-OH), the Ki was 13.1 µM. `CC[C@H](C)[C@H](NC(=O)[C@@H](NC(C)=O)[C@@H](C)O)C(=O)N[C@H](CN[C@@H](CC(C)C)C(=O)N[C@@H](CCC(N)=O)C(=O)N[C@@H](CCCNC(=N)N)C(N)=O)CC(C)C` [Ac--Thr--lle--Leu-.PSI.[CH2 NH]--Leu--Gln--Arg--NH2] gave a Ki of 0.734 µM. In the case of `CC[C@H](C)[C@H](NC(=O)[C@@H]1CCCN1C[C@H](Cc1ccc(O)cc1)NC(=O)[C@H](CC(N)=O)NC(=O)[C@H](CCC(N)=O)NC(C)=O)C(=O)N[C@H](C(N)=O)C(C)C` [Ac--Gln--Asn--Tyr-.PSI.[CH2 N]--Pro--Ile--Val--NH2] (Ac-QN[X1]IV-NH2), the Ki is reported as 17.2 µM.

Target: T1, HIV protease
Assay: not given
Settings: Darke et al. 1988; cited from earlier work
In the case of QNY-PIV, the “cleavage by HIV protease” value is listed as “failed to be cleaved”. For VSQNYPIV, the Km is listed as 2500 µM. For SQNY-PI, the “cleavage by HIV protease” value is listed as “failed to be cleaved”. In the case of acetyl-QNY-PIV, the “cleavage by HIV protease” value is listed as “failed to be cleaved”.

Same assay, conditions: Darke et al. 1988; of the rate of VSQNYPIV; cited from earlier work
In the case of SQNY-PIV, the “cleavage rate relative to the octapeptide” value is given as 90%.

Target: T1, HIV protease
Assay: HIV protease assay, substrate cleavage (relative hydrolysis rates, Km, Vmax)
Type: biochemical, HIV-1
Settings: percent of standard substrate concentration cleaved in twenty minutes, relative to Ac-Thr-Ile-Met-Met-Gln-Arg-NH2 = 1.00
With Aba--Thr--Ile--Nle--PnF--Gln--Arg--NH2 the “Relative Rate” value was 1.46. For Ac--Thr--Ile--Nle--Hle--Gln--Arg--NH2, the “Relative Rate” value was 0.95. With “Ac-TIMMQR-NH2 [Ac--Thr--Ile--Met--Met--Gln--Arg--NH2]” the “Relative Rate” value was 1.00. For “Ac-QNYPIV-NH2 [Ac--Gln--Asn--Tyr--Pro--Ile--Val--NH2]”, the “Relative Rate” value was 0.04.

Same assay, conditions: substrate of HIV protease
For “Ac-TIMMQR-NH2 [Ac--Thr--Ile--Met--Met--Gln--Arg--NH2]”, the Vmax was 725 nmol/min/mg.

Test system: CD4+ human lymphocyte cells (H9 cells)
Assay: not given
Settings: preliminary
For `CCCC[C@@H](CN[C@@H](CCCC)C(=O)N[C@@H](CCC(N)=O)C(=O)N[C@@H](CCCNC(=N)N)C(N)=O)NC(=O)[C@@H](NC(=O)[C@@H](NC(C)=O)[C@@H](C)O)[C@@H](C)CC` [Ac--Thr--Ile--Nle-.PSI.[CH2 NH]--Nle--Gln--Arg--NH2], the “toxicity as measured by cell count” value was “no apparent toxicity”. For `CC[C@H](C)[C@H](NC(=O)[C@@H]1CCCN1C[C@H](Cc1ccc(O)cc1)NC(=O)[C@H](CC(N)=O)NC(=O)[C@H](CCC(N)=O)NC(C)=O)C(=O)N[C@H](C(N)=O)C(C)C` [Ac--Gln--Asn--Tyr-.PSI.[CH2 N]--Pro--Ile--Val--NH2] (Ac-QN[X1]IV-NH2), the “toxicity as measured by cell count” value was “no apparent toxicity”.
